Measured values from patent publication US12285448B2, “Bifidobacterium breve capable of relieving rheumatoid arthritis and application thereof” (Jiangnan University, priority 2020, dated 2025).

Assays:
Type in all cases: in vivo, Wistar rats
[1] = system: IL-1β; assay: Level of IL-1β in the serum of rats with rheumatoid arthritis (ELISA); details: four weeks after booster immunization; model group 835 ng/L, normal group 143 ng/L
Procedure: (§1) MRS liquid media (containing 0.05 g/100 mL cysteine) were respectively inoculated with the B. breve CCFM1078 obtained in Example 1 and LGG and anaerobically cultured at 37° C. for 18 h, and then transferred into fresh MRS liquid media (containing 0.05 g/100 mL cysteine) and cultured at same conditions for 24 h. Bacteria were centrifuged at 6000 g for 15 min, washed with 0.9 g/100 mL normal saline, and centrifuged again at 6000 g for 10 min to obtain the bacteria. The bacteria of the B. breve CCFM1078 and the LGG were resuspended to a cell concentration of 5×10^9 CFU/mL with sterile normal saline with a concentration of 0.9 g/100 mL, and bacterial solutions containing the B. breve CCFM1078 and the LGG were obtained.
(§2) 60 7-week-old SPF (Specific Pathogen Free) female Wistar rats were raised at a room temperature of 22-24° C., a humidity of 40-60%, and an alternation of 12 h/12 h day and night. After being raised for 1 week under the condition of ad libitum, the rats were randomly divided into 5 groups with 12 rats in each group. […]
(§3) Four weeks after the booster immunization, blood was collected and the rats were sacrificed. The rat serum was collected, and the levels of IL-1β and TNFα in the serum of the rats in each group were determined by an ELISA kit.

[2] = Content of short-chain fatty acids in the feces of rats with rheumatoid arthritis (GCMS); details: four weeks after booster immunization
Procedure: as §1
(§4) Sixty 7-week-old SPF (Specific Pathogen Free) female Wistar rats were raised at a room temperature of 22-24° C., a humidity of 40-60%, and an alternation of 12 h/12 h day and night. After being raised for 1 week under the condition of ad libitum, the rats were randomly divided into 5 groups with 12 rats in each group. The 5 groups were a normal group, a model group, a drug group administered with methotrexate by gavage, an LGG group administered with LGG by gavage, and a CCFM1078 group administered with B. breve CCFM1078 by gavage.
The experiment was started after the rats were adaptively raised for one week, and lasted for eight weeks. During the two weeks before modelling, each rat in the normal group, the drug group and the model group was administered by gavage with 1.5 mL of sterile normal saline with a concentration of 0.9 g/100 mL per day, each rat in the LGG group was administered by gavage with 1.5 mL of an LGG bacterial solution with a concentration of 5×10^9 CFU/mL per day, and each rat in the CCFM1078 group was administered by gavage with 1.5 mL of a B. breve CCFM1078 bacterial solution with a concentration of 5×10^9 CFU/mL per day. The third week to the fourth week was a modelling period. On the first day of modelling, a bovine type II collagen solution (Chondrex, 20022) and a Freund's incomplete adjuvant (Chondrex, 7002) were mixed in equal volumes and emulsified to form a complete emulsion (the emulsion was prepared for immediate use, and the prepared emulsion was used within 1 h). A rat was anesthetized with isoflurane and immobilized, the whole rat tail root was disinfected with 75% (v/v) alcohol, and then the rat was subjected to primary immunization. In the primary immunization, 0.15 mL of the complete emulsion was accurately pipetted and injected subcutaneously at 1.5 cm from the tail root of the rat. One week later, booster immunization was conducted by the same treatment method, that is, 0.15 mL of the complete emulsion was accurately pipetted and injected subcutaneously at 2.0 cm from the tail root of the rat. The rats in the normal group were injected with only the same volume of sterile normal saline by the same method. […]

[3] = system: IL-10; assay: Level of IL-10 in the serum of rats with rheumatoid arthritis (ELISA); details: four weeks after booster immunization; model group 1.64 ng/L, normal group 1.59 ng/L
Procedure: as §1
Sixty 7-week-old SPF (Specific Pathogen Free) female Wistar rats were raised at a room temperature of 22-24° C., a humidity of 40-60%, and an alternation of 12 h/12 h day and night. After being raised for 1 week under the condition of ad libitum, the rats were randomly divided into 5 groups with 12 rats in each group. […]
Four weeks after the booster immunization, blood was collected and the rats were sacrificed. The rat serum was collected, and the level of IL-10 in the serum of the rats in each group were determined by an ELISA kit.

[4] = system: Th17 cells; assay: Proportion of Th17 cells in the mesenteric lymph nodes of rats with rheumatoid arthritis (flow cytometry); details: four weeks after booster immunization; model group 13.97 times the normal group
Procedure: as §1, §4
The experiment was started after the rats were adaptively raised for one week, and lasted for eight weeks. […]

[5] = system: rats with rheumatoid arthritis (type II collagen-induced arthritis model); assay: Body weight, joint thickness and clinical score of rats with type II collagen-induced arthritis; details: CIA rats
Procedure: A Type II Collagen-induced arthritis (CIA) model is a classic RA animal model. The onset of CIA has many similarities with rheumatoid arthritis (RA), such as synovial hyperplasia, pannus formation, and cartilage destruction. At present, […]. Therefore, in Examples 5-9, a type II collagen-induced arthritis (CIA) model was used as an RA animal model, and LGG was used as a control.
as §1
60 7-week-old SPF (Specific Pathogen Free) female Wistar rats were raised at a room temperature of 22-24° C., a humidity of 40-60%, and an alternation of 12 h/12 h day and night. […]

[6] = system: TNFα; assay: Level of TNFα in the serum of rats with rheumatoid arthritis (ELISA); details: four weeks after booster immunization; model group 14 ng/L, normal group 9.8 ng/L
Procedure: as §1, §2, §3

## CN(Cc1cnc2nc(N)nc(N)c2n1)c1ccc(C(=O)N[C@@H](CCC(=O)O)C(=O)O)cc1 [methotrexate, Methotrexate]
[1]
  level of IL-1β in the serum: 159 ng/L
[2]
  content of acetic acid in the feces relative to the model group: 1.1 times
  content of butyric acid in the feces relative to the model group: 1.3 times
  content of isobutyric acid in the feces relative to the model group: 1.3 times
  content of pentanoic acid in the feces relative to the model group: 1 times
  content of propionic acid in the feces relative to the model group: 1.2 times
[3]
  concentration of IL-10 in the serum: 1.62 ng/L
[4]
  proportion of Th17 cells in the mesenteric lymph nodes relative to the model group: 12.7%
[5]; FIG. 3
  paw thickness (comparison in words): significantly lower than that of the rats in the model group and restored to normal in the last week
[5]; gavage, after booster immunization, FIG. 2
  body weight change (trend): not significant
[6]
  level of TNFα in the serum: 12 ng/L
